Experimental data: ChEMBL document CHEMBL1136977, “Carbonic anhydrase activators. Activation of the membrane-associated isoform XV with amino acids and amines” (Bioorg Med Chem Lett, 2009)

T1: Carbonic anhydrase 15 (Mus musculus) (UniProt Q99N23)
T1 sequence (whole entry): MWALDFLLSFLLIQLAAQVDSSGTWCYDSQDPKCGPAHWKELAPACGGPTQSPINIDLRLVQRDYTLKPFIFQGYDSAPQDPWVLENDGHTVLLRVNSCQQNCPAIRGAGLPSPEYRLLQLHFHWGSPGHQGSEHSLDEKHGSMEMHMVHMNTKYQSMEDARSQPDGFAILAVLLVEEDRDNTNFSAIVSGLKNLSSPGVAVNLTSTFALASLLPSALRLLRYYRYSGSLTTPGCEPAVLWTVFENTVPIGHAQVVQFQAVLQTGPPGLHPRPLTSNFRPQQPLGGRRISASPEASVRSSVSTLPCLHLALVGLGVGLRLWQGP

B1: Carbonic anhydrase 15 (Mus musculus), Q99N23 (protein)
chain: T1 sequence (whole entry)

Tests used:
[1] = biological target: T1, Carbonic anhydrase 15 (Mus musculus); assay: Activation of membrane associated mouse recombinant carbonic anhydrase 15 isoform by stopped-flow CO2 hydrase method
[2] = biological target: Carbonic anhydrase 4 (Homo sapiens) (UniProt P22748); assay: Activation of human recombinant carbonic anhydrase 4 lacking 20 amino terminal residues by stopped-flow CO2 hydrase method
Carbonic anhydrase 4 (Homo sapiens), sequence (P22748 whole entry, canonical isoform): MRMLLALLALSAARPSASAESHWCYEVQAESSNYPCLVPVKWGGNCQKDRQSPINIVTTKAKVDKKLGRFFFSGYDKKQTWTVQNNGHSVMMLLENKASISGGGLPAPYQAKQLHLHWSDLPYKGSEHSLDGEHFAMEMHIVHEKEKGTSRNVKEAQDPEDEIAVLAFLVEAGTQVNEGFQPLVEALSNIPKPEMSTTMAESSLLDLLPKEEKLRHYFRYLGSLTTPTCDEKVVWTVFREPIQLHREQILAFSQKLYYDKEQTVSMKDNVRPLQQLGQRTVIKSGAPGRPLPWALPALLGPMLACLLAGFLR

[3] = substrate: N[C@@H](Cc1c[nH]cn1)C(=O)O; assay: (§1) Activity of membrane associated mouse recombinant carbonic anhydrase 15 isoform
[4] = substrate: N[C@H](Cc1c[nH]cn1)C(=O)O; assay: as §1

Molecule	KA [1]	KA [2]	kcat [3]	kcat [4]
N[C@H](Cc1ccc(O)c(O)c1)C(=O)O	4 µM	34.7 µM		
NCCc1ccc(O)c(O)c1	7.1 µM	30.9 µM		
N[C@@H](Cc1c[nH]c2ccccc12)C(=O)O	13.5 µM	37.1 µM		
N[C@H](Cc1c[nH]c2ccccc12)C(=O)O	8.7 µM	39.6 µM		
NCCc1c[nH]cn1	18.5 µM	25.3 µM		
NCc1ccccn1	11.6 µM	5.19 µM		
NCCc1ccccn1	11.9 µM	7.13 µM		
CNC[C@@H](O)c1ccc(O)c(O)c1	6.9 µM	45 µM		
NCCc1c[nH]c2ccc(O)cc12	7.5 µM	3.14 µM		
NCCN1CCNCC1	10.4 µM	24.9 µM		
N[C@H](Cc1c[nH]cn1)C(=O)O	14.1 µM	12.3 µM		
Nc1ccc(C[C@H](N)C(=O)O)cc1	16.3 µM	0.079 µM		
NCCN1CCOCC1	9.3 µM	1.3 µM		
N[C@@H](Cc1c[nH]cn1)C(=O)O	32.1 µM	7.3 µM		
N[C@@H](Cc1ccc(O)c(O)c1)C(=O)O	6.5 µM	15.3 µM		
N[C@@H](Cc1ccc(O)cc1)C(=O)O	8.9 µM	25.1 µM		
B1			8.5 ×10⁵ /s	15 ×10⁵ /s
